According to ChEMBL document CHEMBL1123805, “Synthesis of certain nucleoside methylenediphosphonate sugars as potential inhibitors of glycosyltransferases” (J Med Chem, 1987):
Activity calls are given as the source filed them. The rule behind the calls is not given here.

Assays:
[1] = tested on: Vero; assay: In vitro antiviral activity was evaluated against vero cell lines infected with Parainfluenza virus type 3; non toxic at concentrations as high as 50000 uM; type: functional, cell-based; details: Chlorocebus sabaeus
[2] = tested on: Vero; assay: In vitro antiviral activity was evaluated against vero cell lines infected with influenza virus; non toxic at concentrations as high as 50000 uM; type: functional, cell-based; details: Chlorocebus sabaeus
[3] = tested on: WIL2; assay: In vitro antitumor activity was evaluated against human B-lymphoblastic leukemia cell lines; None = no activity; type: functional, cell-based
[4] = tested on: Vero; assay: In vitro antiviral activity was evaluated against vero cell lines infected with adenovirus type 2; non toxic at concentrations as high as 50000 uM; type: functional, cell-based; details: Chlorocebus sabaeus
[5] = tested on: Vero; assay: In vitro antiviral activity was evaluated against vero cell lines infected with visna virus; non toxic at concentrations as high as 50000 uM; type: functional, cell-based; details: Chlorocebus sabaeus
[6] = tested on: Vero; assay: In vitro antiviral activity was evaluated against vero cell lines infected with rhino virus; non toxic at concentrations as high as 50000 uM; type: functional, cell-based; details: Chlorocebus sabaeus
[7] = organism: Mus musculus; assay: Glycosyltransferase inhibitory activity up to a concentration of 50 ug/mL; Without significant activity
[8] = tested on: Vero; assay: In vitro antiviral activity was evaluated against vero cell lines infected with herpes simplex virus type-2; non toxic at concentrations as high as 50000 uM; type: functional, cell-based; details: Chlorocebus sabaeus
[9] = tested on: L1210; assay: In vitro antitumor activity was evaluated against L1210 leukemia cell lines; None = no activity; type: functional, cell-based; details: Mus musculus
[10] = tested on: CCRF-CEM; assay: In vitro antitumor activity was evaluated against human T-lymphoblastic leukemia cell lines; None = no activity; type: functional, cell-based

Nc1ncnc2c1ncn2C1O[C@H](COP(=O)(O)CP(=O)(O)OC2O[C@H](CO)[C@@H](O)[C@H](O)[C@H]2O)[C@@H](O)[C@H]1O (stereo not given in full)
Activity [1]: inactive | Activity [2]: inactive | Cytotoxiciy [3]: None | Activity [4]: inactive | Activity [5]: inactive | Activity [6]: inactive | Activity [7]: Without significant activity | Activity [8]: inactive | Cytotoxiciy [9]: None | Cytotoxiciy [10]: None
